In patent US10479819B2 (priority 2014, dated 2019):
Where two headings read alike, the source gives them in different places. Starred links: 1 amine or outer side, 2 acyl side, 3 side chain; linkers in the order of their positions; H or OH if unused. Non-standard residues stand in square brackets, D forms with d. Residues, ends and D or L forms follow the SMILES beside them. Groups on a side chain read outwards from the residue. *: point of attachment. γGlu = O=C(O)[C@H](CCC(=O)[*:2])N[*:1]; Palmitoyl = CCCCCCCCCCCCCCCC(=O)*; PEG2 = NCCOCCOCCC(=O)O

Legend:
DIO mice = assay: Body weight reduction in DIO (obese) mice; format: in vivo; conditions: 250 μg/kg SC daily, day 11 to day 30, DIO mice
Source text: Forty 25-week-old DIO mice (Nanjing University model animal research center) were randomly divided into five groups (compound 4, 5, 6, 7, and normal saline group), 8 in each group, having no difference in the basis weight of each group.

male C57B1/6J mice = assay: Oral glucose tolerance test in male C57B1/6J mice; format: in vivo; conditions: 250 μg/kg; for AUC of blood glucose in all four OGTT curve periods (0-480 min) compared with carrier (PBS): P<0.05; for effect on oral glucose tolerance: male C57B1/6J mice
human GLP-1R = biological target: T1, human GLP-1R (Homo sapiens, UniProt P43220); assay: In vitro activity on GLP-1R, CRE-luciferase HEK-293 cells; format: cell-based; conditions: for GLP-1R/GCGR: ratio of EC50 GLP-1R to EC50 GCGR
T1 construct: expressed in transfected cells
T1 sequence (P43220 24-463): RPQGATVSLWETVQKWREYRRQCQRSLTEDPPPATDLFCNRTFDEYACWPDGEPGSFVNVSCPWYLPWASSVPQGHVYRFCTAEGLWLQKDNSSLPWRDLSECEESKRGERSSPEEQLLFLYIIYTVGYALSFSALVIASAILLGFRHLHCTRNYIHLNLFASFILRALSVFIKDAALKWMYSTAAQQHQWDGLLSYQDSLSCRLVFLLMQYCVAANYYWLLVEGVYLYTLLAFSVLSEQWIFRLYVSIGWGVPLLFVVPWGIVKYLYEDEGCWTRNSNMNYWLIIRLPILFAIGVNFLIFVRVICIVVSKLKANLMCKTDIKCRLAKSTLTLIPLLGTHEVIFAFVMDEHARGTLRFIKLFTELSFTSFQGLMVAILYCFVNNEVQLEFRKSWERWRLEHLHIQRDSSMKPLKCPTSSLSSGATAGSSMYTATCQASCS
Method in brief: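 HEK-293 cells stably expressing human GLP-1R or human GCGR with CRE-luciferase reporter, 5000 cells/well in DMEM/10% FBS, exposed to compound. Luminescence read after luciferase reagent; EC50 taken from concentration-response curves.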

[1] = Pharmacokinetic analysis after IV or SC administration in male CD1 mice; conditions: for Tmax / half-life: iv
Experimental: Pharmacokinetic parameters of the drugs were calculated by methods of model dependence (for data obtained from IV) and model independence (data obtained from SC).

human GCGR = biological target: T2, human GCGR (Homo sapiens, UniProt P47871); assay: In vitro activity on GCGR, CRE-luciferase HEK-293 cells; format: cell-based
T2 construct: expressed in transfected cells
T2 sequence (P47871 26-477): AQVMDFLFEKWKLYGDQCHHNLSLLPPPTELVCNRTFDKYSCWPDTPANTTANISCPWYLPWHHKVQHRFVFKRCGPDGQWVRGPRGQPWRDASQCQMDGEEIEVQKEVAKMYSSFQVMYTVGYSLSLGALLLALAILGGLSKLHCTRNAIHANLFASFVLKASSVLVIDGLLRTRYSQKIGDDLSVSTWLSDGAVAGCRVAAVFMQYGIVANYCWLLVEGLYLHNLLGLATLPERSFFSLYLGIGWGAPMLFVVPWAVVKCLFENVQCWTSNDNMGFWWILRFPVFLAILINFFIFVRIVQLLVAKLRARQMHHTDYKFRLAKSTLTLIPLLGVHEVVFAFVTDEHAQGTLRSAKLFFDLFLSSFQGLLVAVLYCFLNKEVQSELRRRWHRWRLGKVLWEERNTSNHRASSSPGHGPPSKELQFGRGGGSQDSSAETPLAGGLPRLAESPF
Experimental: 5000 of HEK-293 cells, which are used in CRE-luciferase system and express human GCGR or GLP-1R stably, were inoculated into 384 well plates according to […] DMEM/10% FBS media/well. […] After incubation, […] of luciferase reagent was added directly to each plate and mixed gently for 2 minutes. The plates were placed into an Elmer Perkin plate reader for reading. Concentration curve of the compound was made by drawing software Prism 5, and the EC50 value was calculated.

Compound | weight loss (DIO mice) | body weight compared with normal saline group (DIO mice; P<0.05) | AUC of blood glucose in all four OGTT curve periods (0-480 min) compared with carrier (PBS) (male C57B1/6J mice) | effect on oral glucose tolerance (male C57B1/6J mice) | GLP-1R/GCGR (human GLP-1R) | EC50 (human GLP-1R; read-out: GLP-1R (EC50)) [pM] | clinical adverse effect ([1]; mouse, in vivo) | Tmax ([1]; mouse, in vivo) [h] | half-life ([1]; mouse, in vivo) [h] | peak time ([1]; mouse, in vivo, sc) | EC50 (human GCGR; read-out: GCGR (EC50)) [pM] | clinical adverse effect ([1]; IV or SC route, male CD1 mice) | EC50 (human GCGR) [pM]
CCCCCCCCCCCCCCCC(=O)NCCOCCOCCC(=O)NCCOCCOCCC(=O)NCCCC[C@H](NC(=O)[C@H](CC(=O)O)NC(=O)[C@H](CO)NC(=O)[C@@H](NC(=O)[C@H](Cc1ccccc1)NC(=O)[C@@H](NC(=O)CNC(=O)[C@H](CCC(N)=O)NC(=O)[C@@H](CO)NC(=O)[C@@H](N)Cc1c[nH]cn1)[C@@H](C)O)[C@@H](C)O)C(=O)N[C@@H](CO)C(=O)N[C@@H](CCCCN)C(=O)N[C@@H](Cc1ccc(O)cc1)C(=O)N[C@@H](CC(C)C)C(=O)N[C@@H](CC(=O)O)C(=O)NC(C)(C)C(=O)N[C@@H](CCCNC(=N)N)C(=O)N[C@@H](CCCNC(=N)N)C(=O)N[C@@H](C)C(=O)N[C@@H](CCC(N)=O)C(=O)N[C@@H](CC(=O)O)C(=O)N[C@@H](Cc1ccccc1)C(=O)N[C@H](C(=O)N[C@@H](CCC(N)=O)C(=O)N[C@@H](Cc1c[nH]c2ccccc12)C(=O)N[C@@H](CC(C)C)C(=O)N[C@@H](CCSC)C(=O)N[C@@H](CC(N)=O)C(=O)N[C@H](C(=O)NCC(=O)NCC(=O)N1CCC[C@H]1C(=O)N[C@@H](CO)C(=O)N[C@@H](CO)C(=O)NCC(=O)N[C@@H](C)C(=O)N1CCC[C@H]1C(=O)N1CCC[C@H]1C(=O)N1CCC[C@H]1C(=O)N[C@@H](CO)C(N)=O)[C@@H](C)O)C(C)C [Compound 5] | about 20% | significantly lower | significantly decreased | significantly reduced the oral glucose tolerance | 0.1 | 60 | no clinical adverse effect | ~12 | 4 to 6 | more than 12 hours | 430 | – | –
CCCCCCCCCCCCCCCC(=O)N[C@@H](CCC(=O)NCCOCCOCCC(=O)NCCOCCOCCC(=O)NCCCC[C@H](NC(=O)[C@H](C)NC(=O)[C@H](C)NC(=O)[C@H](CCCCN)NC(=O)[C@H](CCC(=O)O)NC(=O)[C@H](CC(=O)O)NC(=O)[C@H](CC(C)C)NC(=O)[C@H](Cc1ccc(O)cc1)NC(=O)[C@H](CCCCN)NC(=O)[C@H](CO)NC(=O)[C@H](Cc1ccc(O)cc1)NC(=O)[C@H](CC(=O)O)NC(=O)[C@H](CO)NC(=O)[C@@H](NC(=O)[C@H](Cc1ccccc1)NC(=O)[C@@H](NC(=O)CNC(=O)[C@H](CCC(N)=O)NC(=O)[C@@H](CO)NC(=O)[C@@H](N)Cc1c[nH]cn1)[C@@H](C)O)[C@@H](C)O)C(=O)N[C@@H](CCC(=O)O)C(=O)N[C@@H](Cc1ccccc1)C(=O)N[C@H](C(=O)N[C@@H](CCC(=O)O)C(=O)N[C@@H](Cc1c[nH]c2ccccc12)C(=O)N[C@@H](CC(C)C)C(=O)N[C@@H](CC(C)C)C(=O)N[C@@H](CC(N)=O)C(=O)NCC(=O)NCC(=O)N1CCC[C@H]1C(=O)N[C@@H](CO)C(=O)N[C@@H](CO)C(=O)NCC(=O)N[C@@H](C)C(=O)N1CCC[C@H]1C(=O)N1CCC[C@H]1C(=O)N1CCC[C@H]1C(=O)N[C@@H](CO)C(N)=O)[C@@H](C)CC)C(=O)O [Compound 24] (H-H[dS]QGTFTSDYSKYLDEKAAK([PEG2-PEG2-γGlu-Palmitoyl])EFIEWLLNGGPSSGAPPPS-NH2) | – | – | significantly decreased | significantly reduced the oral glucose tolerance | 0.28 | – | – | ~12 | 4 to 6 | – | – | no clinical adverse effect | 580
